Results as given in patent US20200352905A1, “6-(2,4-DICHLOROPHENYL)-5-[4-[(3S)-1-(3-FLUOROPROPYL)PYRROLIDIN-3-YL]OXYPHENYL]-8,9-DIHYDRO-7H-BENZO[7]ANNULENE-2-CARBOXYLIC ACID FOR USE IN METASTATIC OR ADVANCED BREAST CANCER PATIENTS” (SANOFI, priority 2019, published 2020).

Columns and labels:
[1] = test system: ER-positive and HER2-negative advanced breast cancer; experiment: TED14856 Part B: antitumor activity per RECIST v1.1 by Independent Central Review
Protocol: ORR: antitumor activity as documented by tumor response (CR or PR) defined by RECIST v1.1 determined by Independent Central Review (ICR).
The signal extinction between baseline and on study treatment ^18FES-PET scans constitute the PD readout of the ER engagement. No ^18FES-PET or FDG PET/CT imaging is performed in Part B.
Patients with an early progression as per RECIST v1.1 or who died from disease progression are evaluable for response.

[2] = TED14856 Part B (dose expansion, 400 mg QD): safety, TEAEs; type: in vivo, human; details: Part B
Protocol: Part B: Dose expansion study to evaluate the efficacy, safety, PK and PD of compound (1) administered at the RD (from Part A). […] A BID regimen (without omission on Day 2) may also be explored if found to be needed. Safety population includes all patients exposed to at least one dose of the study treatment. Treatment emergent adverse events (TEAEs) are analyzed according to current version of the Medical Dictionary for Regulatory Activities (MedDRA) dictionary. Laboratory abnormalities are analyzed according to the NCI-CTCAE v.4.03. Type, frequency, seriousness, severity and relatedness of study treatment TEAEs is analyzed on the safety population for each dose level. Similar analyses as for the escalation phase shall be performed.

## O=C(O)c1ccc2c(c1)CCCC(c1ccc(Cl)cc1Cl)=C2c1ccc(O[C@H]2CCN(CCCF)C2)cc1 [compound (1), 6-(2,4-dichlorophenyl)-5-[4-[(3S)-1-(3-fluoropropyl)pyrrolidin-3-yl]oxyphenyl]-8,9-dihydro-7H-benzo[7]annulene-2-carboxylic acid]
[1]; 400 mg, N=46, by ICR
  Complete Response (CR): 0 n
[1]; ESR1 mutated patients (3/19)
  Clinical Benefit Rate (CBR) assessed by ICR: 15.8%
[1]; patients with wild-type ESR1 (9/26)
  Clinical Benefit Rate (CBR) assessed by ICR: 34.6%
[2]
  Grade 3 laboratory abnormality: ALK increase: 2 patients
  Grade 3 laboratory abnormality: ALT increase: 4 patients
  Grade 3 laboratory abnormality: AST increase: 6 patients
  Grade 3 laboratory abnormality: anemia: 1 patients
  Grade 3 laboratory abnormality: bilirubin increase: 3 patients
  Grade 3 laboratory abnormality: hypercalcemia: 1 patients
  Grade 3 laboratory abnormality: hyponatremia: 2 patients
  Grade 3 laboratory abnormality: hypophosphatemia: 2 patients
  Grade 3 laboratory abnormality: lymphopenia: 5 patients
  Grade 3 laboratory abnormality: neutropenia: 1 patients
  Grade 4 laboratory abnormality: hypocalcemia: 1 patients
  Grade 4 laboratory abnormality: hypokalemia: 1 patients
  Grade 4 laboratory abnormality: hyponatremia: 1 patients
[2]; 400 mg, N=49
  Patients with Gr3 TEAE: Abdominal pain: 0 n
  Patients with Gr3 TEAE: Abdominal pain upper: 0 n
  Patients with Gr3 TEAE: Arthralgia: 0 n
  Patients with Gr3 TEAE: Asthenia: 0 n
  Patients with Gr3 TEAE: Back pain: 0 n
  Patients with Gr3 TEAE: Constipation: 0 n
  Patients with Gr3 TEAE: Cough: 0 n
  Patients with Gr3 TEAE: Decreased appetite: 0 n
  Patients with Gr3 TEAE: Depression: 0 n
  Patients with Gr3 TEAE: Diarrhoea: 0 n
  Patients with Gr3 TEAE: Dry skin: 0 n
  Patients with Gr3 TEAE: Dyspnoea: 0 n
  Patients with Gr3 TEAE: Gastroesophageal reflux disease: 0 n
  Patients with Gr3 TEAE: Headache: 0 n
  Patients with Gr3 TEAE: Hot flush: 0 n
  Patients with Gr3 TEAE: Hypertension: 0 n
  Patients with Gr3 TEAE: Musculoskeletal pain: 0 n
  Patients with Gr3 TEAE: Nasopharyngitis: 0 n
  Patients with Gr3 TEAE: Pyrexia: 0 n
  Patients with Gr3 TEAE: Rhinitis allergic: 0 n
  Patients with Gr3 TEAE: Urinary tract infection: 0 n
  Patients with related Gr3 TEAE: ALL: 0 n
  Patients with related Gr3 TEAE: ALT increased: 0 n
  Patients with related Gr3 TEAE: AST increased: 0 n
  Patients with related Gr3 TEAE: Abdominal pain: 0 n
  Patients with related Gr3 TEAE: Abdominal pain upper: 0 n
  Patients with related Gr3 TEAE: Arthralgia: 0 n
  Patients with related Gr3 TEAE: Asthenia: 0 n
  Patients with related Gr3 TEAE: Back pain: 0 n
  Patients with related Gr3 TEAE: Constipation: 0 n
  Patients with related Gr3 TEAE: Cough: 0 n
  Patients with related Gr3 TEAE: Decreased appetite: 0 n
  Patients with related Gr3 TEAE: Depression: 0 n
  Patients with related Gr3 TEAE: Diarrhoea: 0 n
  Patients with related Gr3 TEAE: Dry skin: 0 n
  Patients with related Gr3 TEAE: Dyspnoea: 0 n
  Patients with related Gr3 TEAE: Fatigue: 0 n
  Patients with related Gr3 TEAE: Gastroesophageal reflux disease: 0 n
  Patients with related Gr3 TEAE: Headache: 0 n
  Patients with related Gr3 TEAE: Hot flush: 0 n
  Patients with related Gr3 TEAE: Hypertension: 0 n
  Patients with related Gr3 TEAE: Musculoskeletal pain: 0 n
  Patients with related Gr3 TEAE: Nasopharyngitis: 0 n
  Patients with related Gr3 TEAE: Nausea: 0 n
  Patients with related Gr3 TEAE: Pyrexia: 0 n
  Patients with related Gr3 TEAE: Rhinitis allergic: 0 n
  Patients with related Gr3 TEAE: Urinary tract infection: 0 n
